PubChem BioAssay AID2060337 (Molecular Pharmacology Branch, DTP, NCI, 2025)
Where “and” joins values, the source holds several entries; their conditions need not be identical. Equal entries are not always repeated.

System: 832693-133-R-J1-PDC multi-cell spheroids, viability
Assay: Anticancer human tumor 832693-133-R-J1-PDC patient-derived head and neck squamous carcinoma cell line growth inhibition [IpAb]
Settings: for viability, T/C: stronger effect = lower value
Outline: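 Spheroids of 60% malignant cells, 25% HUVEC and 15% MSC were exposed to targeted agents combined with ipatasertib or abemaciclib. Doses started at or near clinical Cmax (10 microM when unknown) and fell in half-log steps.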

[1] = curve of first compound, second compound 0.1 µM
[2] = curve of first compound, second compound 0.316 µM
[3] = curve of first compound, second compound 1 µM
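Note: spheroids exposed to the drugs for one week before the viability readout.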
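Throughout, for viability, T/C: 100% = DMSO vehicle control wells.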

Q: What does the source list for `CC(C)(C)c1cnc(CSc2cnc(NC(=O)C3CCNCC3)s2)o1` + CC(C)NCC(C(=O)N1CCN(c2ncnc3c2C(C)CC3O)CC1)c1ccc(Cl)cc1?
A: IC50 [1]: 0.219 µM; IC50 [2]: 0.189 µM; IC50 [3]: 0.137 µM; IC50 (curve of first compound, second compound 3.16 µM): 0.133 µM; IC50 (curve of first compound, second compound 10 µM): 0.158 µM; viability, T/C (second compound 0.1 µM, first compound 0.00949 µM): 101%; viability, T/C (second compound 0.1 µM, first compound 0.03 µM): 122%; viability, T/C (second compound 0.1 µM, first compound 0.0949 µM): 146%; viability, T/C (second compound 0.1 µM, first compound 0.3 µM): 22.2%; viability, T/C (second compound 0.1 µM, first compound 0.949 µM): 1.14%; viability, T/C (second compound 0.1 µM, first compound 3 µM): 1.67%; viability, T/C (second compound 0.316 µM, first compound 0.00949 µM): 92.5%; viability, T/C (second compound 0.316 µM, first compound 0.03 µM): 94.2%; viability, T/C (second compound 0.316 µM, first compound 0.0949 µM): 113%; viability, T/C (second compound 0.316 µM, first compound 0.3 µM): 16.5%; viability, T/C (second compound 0.316 µM, first compound 0.949 µM): 0.85%; viability, T/C (second compound 0.316 µM, first compound 3 µM): 1.58%; viability, T/C (second compound 1 µM, first compound 0.00949 µM): 67.7%; viability, T/C (second compound 1 µM, first compound 0.03 µM): 70.7%; viability, T/C (second compound 1 µM, first compound 0.0949 µM): 75.6%; viability, T/C (second compound 1 µM, first compound 0.3 µM): 4.32%; viability, T/C (second compound 1 µM, first compound 0.949 µM): 1.17%; viability, T/C (second compound 1 µM, first compound 3 µM): 1.18%; viability, T/C (second compound 3.16 µM, first compound 0.00949 µM): 60%; viability, T/C (second compound 3.16 µM, first compound 0.03 µM): 68%; viability, T/C (second compound 3.16 µM, first compound 0.0949 µM): 81.9%; viability, T/C (second compound 3.16 µM, first compound 0.3 µM): 1.46%; viability, T/C (second compound 3.16 µM, first compound 0.949 µM): 1.05%; viability, T/C (second compound 3.16 µM, first compound 3 µM): 1.4%; viability, T/C (second compound 10 µM, first compound 0.00949 µM): 75%; viability, T/C (second compound 10 µM, first compound 0.03 µM): 83.4%; viability, T/C (second compound 10 µM, first compound 0.0949 µM): 108%; viability, T/C (second compound 10 µM, first compound 0.3 µM): 0.9%; viability, T/C (second compound 10 µM, first compound 0.949 µM): 1.13%; viability, T/C (second compound 10 µM, first compound 3 µM): 1.37%

Q: For `CC1(C)CCC(CN2CCN(c3ccc(C(=O)NS(=O)(=O)c4ccc(NCC5CCOCC5)c([N+](=O)[O-])c4)c(Oc4cnc5[nH]ccc5c4)c3)CC2)=C(c2ccc(Cl)cc2)C1`, which viability, T/C (compound 0.0316 µM) is on record?
A: The viability, T/C was 98.5% and 113%.

Q: What about the viability, T/C (compound 0.1 µM) of the same compound?
A: The viability, T/C was 98.3% and 122%.

Q: And the viability, T/C (compound 0.316 µM)?
A: The viability, T/C was 106% and 107%.

Q: What about the viability, T/C (compound 1 µM) of the same compound?
A: Its viability, T/C is 108% and 102%.

Q: What about the viability, T/C (compound 3.16 µM) of the same compound?
A: Its viability, T/C is 110% and 90.5%.

Q: What about the IC50 (curve of compound) of the same compound?
A: Its IC50 is 8.78 µM and 5.33 µM.

Q: What does the source list for `CC1(C)CCC(CN2CCN(c3ccc(C(=O)NS(=O)(=O)c4ccc(NCC5CCOCC5)c([N+](=O)[O-])c4)c(Oc4cnc5[nH]ccc5c4)c3)CC2)=C(c2ccc(Cl)cc2)C1` + CCN1CCN(Cc2ccc(Nc3ncc(F)c(-c4cc(F)c5nc(C)n(C(C)C)c5c4)n3)nc2)CC1?
A: IC50 (curve of first compound, second compound 0.01 µM): 5.41 µM; IC50 (curve of first compound, second compound 0.0316 µM): 6.55 µM; IC50 [1]: 4.19 µM; IC50 [2]: 4.12 µM; IC50 [3]: 4.6 µM; viability, T/C (second compound 0.01 µM, first compound 0.0316 µM): 93.7%; viability, T/C (second compound 0.01 µM, first compound 0.1 µM): 104%; viability, T/C (second compound 0.01 µM, first compound 0.316 µM): 102%; viability, T/C (second compound 0.01 µM, first compound 1 µM): 96.1%; viability, T/C (second compound 0.01 µM, first compound 3.16 µM): 75.2%; viability, T/C (second compound 0.01 µM, first compound 10 µM): 21.2%; viability, T/C (second compound 0.0316 µM, first compound 0.0316 µM): 89%; viability, T/C (second compound 0.0316 µM, first compound 0.1 µM): 93.9%; viability, T/C (second compound 0.0316 µM, first compound 0.316 µM): 85.8%; viability, T/C (second compound 0.0316 µM, first compound 1 µM): 86.5%; viability, T/C (second compound 0.0316 µM, first compound 3.16 µM): 83.6%; viability, T/C (second compound 0.0316 µM, first compound 10 µM): 30.4%; viability, T/C (second compound 0.1 µM, first compound 0.0316 µM): 73.1%; viability, T/C (second compound 0.1 µM, first compound 0.1 µM): 69%; viability, T/C (second compound 0.1 µM, first compound 0.316 µM): 78.1%; viability, T/C (second compound 0.1 µM, first compound 1 µM): 71.2%; viability, T/C (second compound 0.1 µM, first compound 3.16 µM): 60.4%; viability, T/C (second compound 0.1 µM, first compound 10 µM): 17.7%; viability, T/C (second compound 0.316 µM, first compound 0.0316 µM): 55.6%; viability, T/C (second compound 0.316 µM, first compound 0.1 µM): 61%; viability, T/C (second compound 0.316 µM, first compound 0.316 µM): 51.9%; viability, T/C (second compound 0.316 µM, first compound 1 µM): 67.3%; viability, T/C (second compound 0.316 µM, first compound 3.16 µM): 75.5%; viability, T/C (second compound 0.316 µM, first compound 10 µM): 9.24%; viability, T/C (second compound 1 µM, first compound 0.0316 µM): 63.9%; viability, T/C (second compound 1 µM, first compound 0.1 µM): 72.1%; viability, T/C (second compound 1 µM, first compound 0.316 µM): 80.2%; viability, T/C (second compound 1 µM, first compound 1 µM): 68.5%; viability, T/C (second compound 1 µM, first compound 3.16 µM): 72.9%; viability, T/C (second compound 1 µM, first compound 10 µM): 5.47%
